Consider two substances from patent US8497241B2, “WNT10-derived peptide and use thereof” (Caregen Co., Ltd., priority 2009, dated 2013).

In one test the test system is HaCaT kerationcytes. Briefly: SRB colorimetric assay of cell growth in HaCaT keratinocytes. The test is classed as cell-based. Conditions: 72 hr. The protocol: (§1) In order to evaluate three peptides prepared in Preparation Examples 1-2 whether they have similar activities of growth factor, SRB (Sulforhodamine B; Sigma-Aldrich) colorimetric assay was carried out using HaCaT kerationcytes (Korean Cell Line Bank) and NIH3T3 fibroblasts (Korean Cell Line Bank) according to Rizzino et al. method (Rizzino, et al. Cancer Res., 48: 4266 (1988)).
(§2) HaCaT ketatinocytes and NIH3T3 fibroblasts were cultured in 250 ml-flasks containing EMEM (Eagle's minimal essential media; Gibco, USA) supplemented with 10% FBS (fetal bovine serum; Sigma). Cells cultured were treated with 1% trypsin solution to detach cells from the bottom of culture flasks and centrifuged to collect cell pellets. After cells were resuspended in EMEM not containing FBS, its aliquot (3×10^3 cells) was added to each well of 96-well plates and cultured under 5% CO2 for 24 hr at 37° C. After 24-hr culture, the medium was changed with a fresh medium without serum and cells were incubated with empty sample (for normalization), three peptides synthesized (1 ng/ml, 10 ng/ml, 100 ng/ml, 1 μg/ml and 10 μg/ml) and peptide complex (1 μg/ml) aseptically dissolved in 10% DMSO for 72 hr under the same conditions as described above. […] In addition, absorbance at 590 nm was measured to analyze cell viability. […]
In general terms: The SRB assay estimates cell density from bound dye.

Test [1] deals with Ki-67 protein. Briefly: Ki-67 immunostaining (cell proliferation marker) in keratinocytes. The test is classed as cell-based. Conditions: FIG. 4.
The subject of another test is NIH3T3 fibroblasts. Briefly: SRB colorimetric assay of cell growth in NIH3T3 fibroblasts. Type of test: cell-based. The method, then:
as §1, §2

A further test relates to C57BL/6 mouse. Put plainly: Mouse hair growth, topical nanosome on back skin. Conditions: twice every day. The test is classed as in vivo. The source says:
The peptide synthesized in Preparation Example 1 was formulated into nanosome. Afterwards, the back of C57BL/6 mouse was partially removed and then the skin was topically administered with the nanosome twice every day for 15 days.

For test [2], the system named is β-catenin. Briefly: Western blot of β-catenin in HaCaT keratinocytes. Conditions: FIG. 6a; for expression level of β-catenin: 5 hr, single treatment; for β-catenin expression in the presence of DKK-1: treatment with both DKK-1 and peptide. Type of test: cell-based. The method, then: (§3) HaCaT kerationcytes cultured for 48 hr were incubated with the peptides synthesized in preparation Example 1 for 5 hr. The expression level of β-catenin was examined, which is an essential signal molecule to promote hair growth as a representative signaling of WNT protein. The amount of β-catenin was measured by Western blot analysis using an antibody against β-catenin (SantaCruz, USA). In addition, it was observed by an immunohistochemical assay using the same whether β-catenin is translocated into a nucleus. […] Besides, […] activities were also observed in cytosol as β-catenin is still present in cytosol (FIG. 6b).
On the technique in general: A western blot detects proteins with antibodies after separation by electrophoresis.

The test system of test [3] is β-catenin. Briefly: Immunohistochemical assay of β-catenin translocation into nucleus in HaCaT keratinocytes. Type of test: cell-based. Conditions: FIG. 6b. The method, then: as §3
For another test, the system named is fibronectin. Briefly: Fibronectin ELISA in NIH3T3 fibroblasts. Type of test: cell-based. Conditions: NIH3T3, FIG. 9b. The method, then:
To verify whether the peptides synthesized in preparation Example 1 enhances the expression of fibronectin as a WNT target protein, NIH3T3 fibroblasts (4×10^3 cells) was added to each well of 96-well plates and cultured under 5% CO2 for 24 hr at 37° C. After 24-hr culture, the medium was changed with a fresh medium without serum and cells were treated with empty sample (for normalization), three peptides synthesized (1 μg/ml) and peptide complex (1 μg/ml) aseptically dissolved in 10% DMSO for 3 hr, 10 hr, 24 hr or 48 hr under the same conditions as described above. After 72 hr incubation, the cell culture was collected and the expression level of fibronectin was measured using Fibronectin ELISA kit (R&D systems, USA).
In general terms: ELISA stands for enzyme-linked immunosorbent assay.

Test [4] relates to β-catenin. Put plainly: Mouse hair follicle culture, β-catenin immunostaining. The test is classed as cell-based. Conditions: 5 days culture, FIG. 13b.
In test [5] the test system is Ki-67 protein. Briefly: Mouse hair follicle culture, Ki-67 immunostaining. Type of test: cell-based. Conditions: 5 days culture, FIG. 13d.
For another test, the system named is WNT protein. Put plainly: Mouse hair follicle culture, WNT protein immunostaining. Type of test: cell-based. Conditions: 5 days culture, FIG. 13c.
In test [6] the test system is Hair follicle of Balb/C mouse. Put plainly: Mouse hair follicle culture, H&E staining. Type of test: cell-based. Conditions: 5 days culture, FIG. 13a. The protocol:
Hair follicle of Balb/C mouse hair was dissected with a surgical mess and washed with ethanol, followed by additionally washing with PBS and DMEM culture solution. Hereafter, hair follicles were incubated with 5 μg/ml of each peptide complex dissolved in DMEM culture solution, and cultured under 5% CO2 for 5 days at 37° C. After 5 days-culture, hair follicles were prepared as a paraffin block and each tissue treated with control, peptide complex, DKK-1, and DKK-1 and peptide complex was stained and compared using H&E staining (FIGS. 13a-13d).

“Also recorded” adds a separate entry of the source.

In the case of “H-RQTRVQRCHC-OH (cysteine pairing not given here) [the peptide of the present invention]”, in the test on HaCaT kerationcytes (FIG. 3), the “proliferation and cell shape under a microscope, keratinocytes” value was “promotes proliferation of keratinocytes and fibroblasts, and changes their morphological shapes”. For the same substance, the growth of keratinocytes result in the test with HaCaT kerationcytes (HaCaT, 1 ng/ml to 10 μg/ml, FIG. 2a) is “notably increases the growth of keratinocytes”. Further, in the test on Ki-67 protein [1], the “expression of Ki-67 protein in keratinocytes” value is “remarkably enhanced”. The “proliferation and cell shape under a microscope, fibroblasts” value in the test with NIH3T3 fibroblasts (72 hr, FIG. 3) was “promotes proliferation of keratinocytes and fibroblasts, and changes their morphological shapes”. Also, the growth of fibroblasts result in the test on NIH3T3 fibroblasts (NIH3T3, 72 hr, 1 ng/ml to 10 μg/ml, FIG. 2b) is “notably increases the growth”. In the test with C57BL/6 mouse (C57BL/6), the “hair growth on mouse back skin at 9 days-treatment” value is “growing hair was observed”. Besides, the “amount of hair in mouse back skin at 15 days-treatment compared with control group” value in the test with C57BL/6 mouse (C57BL/6, FIG. 12) was “much significantly enhanced”. Also, the “expression level of β-catenin” value in the test with β-catenin [2] (FIG. 8) was “significantly elevated”; in the test with β-catenin [2] (FIG. 8, listed as the present peptide), “enhancement of β-catenin expression; also recorded: induces elevated activity of β-catenin”. The “β-catenin expression in the presence of DKK-1” value was “β-catenin activity is observed” in the test on β-catenin [2]; “re-increase of the expression of β-catenin; also recorded: restored and enhanced” in the test on β-catenin [2] (listed as the present peptide). For the same substance, the “translocation of β-catenin to nucleus / β-catenin activity by immunostaining” value in the test with β-catenin [3] was “elevated activity of β-catenin”; with β-catenin [3] (listed as the present peptide), “contributes to translocation of β-catenin from cytosol to nucleus”. The “expression level of fibronectin in treatment with both DKK-1 and peptide” value in the test on fibronectin (listed as the present peptide) was “restored and enhanced; also recorded: recovered”.
For “DKK-1: a WNT inhibitor and a β-catenin signaling inhibitor, hair loss gene”, the “expression of β-catenin in hair follicle, single treatment” value in the test with β-catenin [4] is listed as “inhibited”. Further, in the test with Ki-67 protein [5], the “expression of Ki-67 protein in hair follicle, single treatment” value was “suppressed”. For the same substance, the “expression of WNT protein in hair follicle, single treatment” value with WNT protein is recorded as “inhibited”. For the same substance, the “expression level of β-catenin” value with β-catenin [2] (FIG. 8) is listed as “reduced”. The “hair follicles (H&E), single treatment” value in test [6] is “degenerated”. Further, the “fibronectin expression, DKK-1 alone” value with fibronectin is “inhibited”.
